Results reported in patent US20250346592A1 (Celgene Corporation, priority 2022, published 2025).
pIC50: −log10 of the molar value.

Target: hPAD4 enzyme (Homo sapiens (Human), UniProt Q9UM07)
Assay: RFMS2 assay (RapidFire mass spectrometry, TSTGGRQGSHH peptide substrate)
Type: biochemical
Conditions: 35 nM recombinant human PAD4, 500 μM TSTGGRQGSHH peptide, 30 minutes at room temperature; read-out: RFMS 2 IC50
Outline: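 Recombinant human PAD4 (35 nM) with 500 μM TSTGGRQGSHH peptide in HEPES pH 7.4, 200 mM NaCl, 2 mM CaCl2, 5 mM DTT, 1.2% DMSO, 30 min at room temperature; 3-fold compound series, top 20 μM. Quenched with formic acid; substrate and citrullinated product quantified by RapidFire MRM mass spectrometry for IC50.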

Sequence of hPAD4 enzyme (Q9UM07 whole entry): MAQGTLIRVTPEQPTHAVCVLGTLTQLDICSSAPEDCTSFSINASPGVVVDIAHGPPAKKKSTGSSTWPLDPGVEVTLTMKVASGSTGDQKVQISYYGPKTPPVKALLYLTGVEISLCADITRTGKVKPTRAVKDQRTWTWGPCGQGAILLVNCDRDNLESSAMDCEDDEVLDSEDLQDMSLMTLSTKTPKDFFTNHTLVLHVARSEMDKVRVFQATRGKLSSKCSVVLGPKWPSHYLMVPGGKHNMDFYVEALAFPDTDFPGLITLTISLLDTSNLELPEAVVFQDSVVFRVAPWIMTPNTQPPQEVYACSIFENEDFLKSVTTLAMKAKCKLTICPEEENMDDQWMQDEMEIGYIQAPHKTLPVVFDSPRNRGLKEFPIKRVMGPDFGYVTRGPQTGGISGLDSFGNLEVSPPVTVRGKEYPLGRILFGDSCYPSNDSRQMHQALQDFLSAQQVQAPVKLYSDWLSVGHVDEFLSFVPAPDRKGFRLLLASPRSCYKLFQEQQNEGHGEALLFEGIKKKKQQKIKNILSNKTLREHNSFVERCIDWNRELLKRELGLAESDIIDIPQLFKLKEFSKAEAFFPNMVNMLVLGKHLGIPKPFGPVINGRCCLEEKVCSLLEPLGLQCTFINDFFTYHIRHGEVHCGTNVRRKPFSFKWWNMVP

Structure (SMILES) | pIC50
COc1cccc2cc(-c3nc4cc5c(cc4n3C)CCN(C[C@H](N)CF)C5=O)n(Cc3cccnn3)c12 [Example 126, (S)-6-(2-amino-3-fluoropropyl)-2-(7-methoxy-1-(pyridazin-3-ylmethyl)-1H-indol-2-yl)-1-methyl-1,6,7,8-tetrahydro-5H-imidazo[4,5-g]isoquinolin-5-one] | 6.30 to 7.00
COc1cccc2cc(-c3nc4cc5c(cc4n3C)CCN(C[C@H](N)CF)C5=O)n(Cc3cnccn3)c12 [Example 128, (S)-6-(2-amino-3-fluoropropyl)-2-(7-methoxy-1-(pyrazin-2-ylmethyl)-1H-indol-2-yl)-1-methyl-1,6,7,8-tetrahydro-5H-imidazo[4,5-g]isoquinolin-5-one] | 6.30 to 7.00
COc1cccc2cc(-c3nc4cc5c(cc4n3C)CCN(C[C@H](N)CF)C5=O)n(Cc3nc(C)no3)c12 [Example 129, (S)-6-(2-amino-3-fluoropropyl)-2-(7-methoxy-1-((3-methyl-1,2,4-oxadiazol-5-yl)methyl)-1H-indol-2-yl)-1-methyl-1,6,7,8-tetrahydro-5H-imidazo[4,5-g]isoquinolin-5-one] | 6.30 to 7.00
COc1cccc2cc(-c3nc4cc5c(cc4n3C)CCN(C[C@H](N)CF)C5=O)n(C[C@H]3CCCO3)c12 [Example 132, 6-((S)-2-amino-3-fluoropropyl)-2-(7-methoxy-1-(((R)-tetrahydrofuran-2-yl)methyl)-1H-indol-2-yl)-1-methyl-1,6,7,8-tetrahydro-5H-imidazo[4,5-g]isoquinolin-5-one] | 6.30 to 7.00
COc1cccc2cc(-c3nc4cc5c(cc4n3C)CCN(C[C@H](N)CF)C5=O)n(Cc3cc(Cl)no3)c12 [Example 136, (S)-6-(2-amino-3-fluoropropyl)-2-(1-((3-chloroisoxazol-5-yl)methyl)-7-methoxy-1H-indol-2-yl)-1-methyl-1,6,7,8-tetrahydro-5H-imidazo[4,5-g]isoquinolin-5-one] | 6.30 to 7.00
COc1cccc2cc(-c3nc4cc5c(cc4n3C)CCN(C[C@H](N)CF)C5=O)n(Cc3ccoc3)c12 [Example 138, (S)-6-(2-amino-3-fluoropropyl)-2-(1-(furan-3-ylmethyl)-7-methoxy-1H-indol-2-yl)-1-methyl-1,6,7,8-tetrahydro-5H-imidazo[4,5-g]isoquinolin-5-one] | 6.30 to 7.00
COc1cccc2cc(-c3nc4cc5c(cc4n3C)CCN(C[C@H](N)CF)C5=O)n(Cc3oncc3C)c12 [Example 139, (S)-6-(2-amino-3-fluoropropyl)-2-(7-methoxy-1-((4-methylisoxazol-5-yl)methyl)-1H-indol-2-yl)-1-methyl-1,6,7,8-tetrahydro-5H-imidazo[4,5-g]isoquinolin-5-one] | 6.30 to 7.00
COc1cccc2cc(-c3nc4cc5c(cc4n3C)CCN(C[C@H](N)CF)C5=O)n(Cc3ccc(C#N)o3)c12 [Example 140, (S)-5-((2-(6-(2-amino-3-fluoropropyl)-1-methyl-5-oxo-5,6,7,8-tetrahydro-1H-imidazo[4,5-g]isoquinolin-2-yl)-7-methoxy-1H-indol-1-yl)methyl)furan-2-carbonitrile] | 7.00 to 7.96
COc1cccc2cc(-c3nc4cc5c(cc4n3C)CCN(C[C@H](N)CF)C5=O)n(Cc3ocnc3C)c12 [Example 142, (S)-6-(2-amino-3-fluoropropyl)-2-(7-methoxy-1-((4-methyloxazol-5-yl)methyl)-1H-indol-2-yl)-1-methyl-1,6,7,8-tetrahydro-5H-imidazo[4,5-g]isoquinolin-5-one] | 6.30 to 7.00
COc1cccc2cc(-c3nc4cc5c(cc4n3C)CCN(C[C@H](N)CF)C5=O)n(Cc3ccc(C)o3)c12 [Example 143, (S)-6-(2-amino-3-fluoropropyl)-2-(7-methoxy-1-((5-methylfuran-2-yl)methyl)-1H-indol-2-yl)-1-methyl-1,6,7,8-tetrahydro-5H-imidazo[4,5-g]isoquinolin-5-one] | 6.30 to 7.00
COc1cccc2cc(-c3nc4cc5c(cc4n3C)CCN(C[C@H](N)CF)C5=O)n(Cc3ccnnc3)c12 [Example 144, (S)-6-(2-amino-3-fluoropropyl)-2-(7-methoxy-1-(pyridazin-4-ylmethyl)-1H-indol-2-yl)-1-methyl-1,6,7,8-tetrahydro-5H-imidazo[4,5-g]isoquinolin-5-one] | 6.30 to 7.00
COC1(Cn2c(-c3nc4cc5c(cc4n3C)CCN(C[C@H](N)CF)C5=O)cc3ccccc32)CC1 [Example 147, (S)-6-(2-amino-3-fluoropropyl)-2-(1-((1-methoxycyclopropyl)methyl)-1H-indol-2-yl)-1-methyl-1,6,7,8-tetrahydro-5H-imidazo[4,5-g]isoquinolin-5-one] | < 6.00
Cn1c(-c2cc3cccc(OCC4CNC4)c3n2CC2CC2)nc2cc3c(cc21)CCN(C[C@H](N)CF)C3=O [Example 152, (S)-6-(2-amino-3-fluoropropyl)-2-(7-(azetidin-3-ylmethoxy)-1-(cyclopropylmethyl)-1H-indol-2-yl)-1-methyl-1,6,7,8-tetrahydro-5H-imidazo[4,5-g]isoquinolin-5-one] | 6.30 to 7.00
Cn1c(-c2cc3cccc(OC[C@@H]4CCC(=O)N4)c3n2CC2CC2)nc2cc3c(cc21)CCN(C[C@H](N)CF)C3=O [Example 156, 6-((S)-2-amino-3-fluoropropyl)-2-(1-(cyclopropyl-methyl)-7-(((S)-5-oxopyrrolidin-2-yl)methoxy)-1H-indol-2-yl)-1-methyl-1,6,7,8-tetrahydro-5H-imidazo [4,5-g]isoquinolin-5-one] | 6.30 to 7.00
Cn1c(-c2cc3cccc(OC[C@H]4CCC(=O)N4)c3n2CC2CC2)nc2cc3c(cc21)CCN(C[C@H](N)CF)C3=O [Example 157, 6-((S)-2-amino-3-fluoropropyl)-2-(1-(cyclopropyl-methyl)-7-(((R)-5-oxopyrrolidin-2-yl)methoxy)-1H-indol-2-yl)-1-methyl-1,6,7,8-tetrahydro-5H-imidazo [4,5-g]isoquinolin-5-one] | 6.30 to 7.00

Second part, the compound after the results:

pIC50 | Structure (SMILES)
6.30 to 7.00 | COc1cccc2cc(-c3nc4cc5c(cc4n3C)CCN(C[C@H](N)CF)C5=O)n(C[C@@H]3CCCO3)c12 [Example 133, 6-((S)-2-amino-3-fluoropropyl)-2-(7-methoxy-1-(((S)-tetrahydrofuran-2-yl)methyl)-1H-indol-2-yl)-1-methyl-1,6,7,8-tetrahydro-5H-imidazo[4,5-g]isoquinolin-5-one]
< 6.00 | CCn1c(-c2nc3cc4c(cc3n2C)CCN(C[C@H](N)CF)C4=O)cc2ccccc21 [Example 134, (S)-6-(2-amino-3-fluoropropyl)-2-(1-ethyl-1H-indol-2-yl)-1-methyl-1,6,7,8-tetrahydro-5H-imidazo[4,5-g]isoquinolin-5-one]
6.30 to 7.00 | COc1cccc2cc(-c3nc4cc5c(cc4n3C)CCN(C[C@H](N)CF)C5=O)n(Cc3cc(C#N)no3)c12 [Example 137, (S)-5-((2-(6-(2-amino-3-fluoropropyl)-1-methyl-5-oxo-5,6,7,8-tetrahydro-1H-imidazo[4,5-g]isoquinolin-2-yl)-7-methoxy-1H-indol-1-yl)methyl)isoxazole-3-carbonitrile]
6.30 to 7.00 | COc1cccc2cc(-c3nc4cc5c(cc4n3C)CCN(C[C@H](N)CF)C5=O)n(Cc3ccco3)c12 [Example 141, (S)-6-(2-amino-3-fluoropropyl)-2-(1-(furan-2-ylmethyl)-7-methoxy-1H-indol-2-yl)-1-methyl-1,6,7,8-tetrahydro-5H-imidazo[4,5-g]isoquinolin-5-one]
6.30 to 7.00 | COc1cccc2cc(-c3nc4cc5c(cc4n3C)CCN(C[C@H](N)CF)C5=O)n(Cc3coc(C)n3)c12 [Example 145, (S)-6-(2-amino-3-fluoropropyl)-2-(7-methoxy-1-((2-methyloxazol-4-yl)methyl)-1H-indol-2-yl)-1-methyl-1,6,7,8-tetrahydro-5H-imidazo[4,5-g]isoquinolin-5-one]
6.00 to 6.30 | Cn1c(-c2cc3cccc(C#N)c3n2Cc2ccno2)nc2cc3c(cc21)CCN(C[C@H](N)CF)C3=O [Example 148, (S)-2-(6-(2-amino-3-fluoropropyl)-1-methyl-5-oxo-5,6,7,8-tetrahydro-1H-imidazo[4,5-g]isoquinolin-2-yl)-1-(isoxazol-5-ylmethyl)-1H-indole-7-carbonitrile]
6.30 to 7.00 | Cn1c(-c2cc3cccc(OCC4COC4)c3n2CC2CC2)nc2cc3c(cc21)CCN(C[C@H](N)CF)C3=O [Example 149, (S)-6-(2-amino-3-fluoropropyl)-2-(1-(cyclopropylmethyl)-7-(oxetan-3-ylmethoxy)-1H-indol-2-yl)-1-methyl-1,6,7,8-tetrahydro-5H-imidazo[4,5-g]isoquinolin-5-one]
7.00 to 7.96 | Cn1c(-c2cc3cccc(OCC4CNC(=O)C4)c3n2CC2CC2)nc2cc3c(cc21)CCN(C[C@H](N)CF)C3=O (some centres unmarked) [Example 151]
6.30 to 7.00 | COCCOc1cccc2cc(-c3nc4cc5c(cc4n3C)CCN(C[C@H](N)CF)C5=O)n(CC3CC3)c12 [Example 153, (S)-6-(2-amino-3-fluoropropyl)-2-(1-(cyclopropyl-methyl)-7-(2-methoxyethoxy)-1H-indol-2-yl)-1-methyl-1,6,7,8-tetrahydro-5H-imidazo[4,5-g] isoquinolin-5-one]
< 6.00 | CN(C)CCOc1cccc2cc(-c3nc4cc5c(cc4n3C)CCN(C[C@H](N)CF)C5=O)n(CC3CC3)c12 [Example 154, (S)-6-(2-amino-3-fluoropropyl)-2-(1-(cyclopropyl-methyl)-7-(2-(dimethylamino)ethoxy)-1H-indol-2-yl)-1-methyl-1,6,7,8-tetrahydro-5H-imidazo[4,5-g] isoquinolin-5-one]
7.00 to 7.96 | Cn1c(-c2cc3cccc(OCCn4cccn4)c3n2CC2CC2)nc2cc3c(cc21)CCN(C[C@H](N)CF)C3=O [Example 155, (S)-2-(7-(2-(1H-pyrazol-1-yl)ethoxy)-1-(cyclopropyl-methyl)-1H-indol-2-yl)-6-(2-amino-3-fluoropropyl)-1-methyl-1,6,7,8-tetrahydro-5H-imidazo[4,5-g] isoquinolin-5-one]
